# Results as given in patent US20220054658A1, “CONJUGATES” (Transfection Holdings Limited, priority 2018, published 2022).
# “Also recorded” adds a separate entry of the source.
# How the values were obtained:
# C. elegans = test: Conjugate uptake in C. elegans (dye and praziquantel conjugates, fluorescence microscopy); assay type: in vivo, Caenorhabditis elegans
# Summary of the method: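 Worms in M9 buffer were exposed to 50 μM compound from a DMSO stock at room temperature in the dark for 3 h. Other samples were incubated overnight at 20 °C with OP50, and praziquantel conjugates were also read at 24 and 72 h. Worms were washed, immobilised with sodium azide on agarose and imaged by fluorescence microscopy.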
# P. falciparum = test: Plasmodium falciparum testing: uptake by infected and non-infected red blood cells; assay type: cell-based; details: 25 μM, 45 minutes, 37° C., synchronised stage and mix-stage cultures
# Experimental: Compounds 1, 5, 9, 10 and 11 were tested for uptake in both synchronised stage and mix-stage cultures at 25 μM concentrations.
# T. annulata = test: Theileria annulata testing: uptake; assay type: cell-based; details: 1 hour, 37° C.
# Experimental: T. annulata were cultured using RPMI 1640 with 10% Albumax II (Thermo-Fisher) serum. A standard hemocytometer was used to calculate the concentration of cells in the parent culture. […] For each compound and concentration to be tested, 2 mL of the culture were centrifuged at 1,000 rpm for 5 minutes. The medium was removed before the cells were resuspended in 950 μL of complete medium containing the compound to be tested at the desired concentration. This was prepared from a 100 mM stock solution of compound in DMSO. Once the cells were resuspended they were transferred to a 5 well plate (1 mL capacity per well). They were then incubated for 1 hour at 37° C. in an atmosphere of 5% CO2 in air. After the incubations were complete the contents of each well were transferred to a 10 mL centrifuge tube. Cold RPMI 1640 (Thermofisher) or HBSS added to obtain a volume of 5 mL. The suspension was then centrifuged at 1,000 rpm and at 4° C. for 5 minutes. […] After the final washing the pellet of cells was resuspended in a minimum amount of RPMI 1640 and then spotted onto a glass slide. The slide was then covered with a cover slip and analysed using Olympus BX60 UV microscope system with a Spot RT3 camera and Spot Image software with a FITC fluorescent filter.
# L. passim strain PRA-403 = test: Lotmaria passim parasite uptake test; assay type: cell-based; details: 1 μM, room temperature, 45 min, microplate reader
# Experimental: 100 mM stock solutions of BODIPY derivatives were prepared with dimethylsulfoxide (DMSO). L passim strain PRA-403 (ATCC) was cultured in modified medium for C. bombi (Tognazzo et al.). The parasite culture was centrifuged, supernatant was removed and 500 μL of L passim medium with compound (final concentration 500, 100, 10 or 1 μM for BODIPY derivatives) or DMSO (0.1%) control was added. Incubated for 45 min at room temperature.
# Uptake tests were performed at 1 μM and 100 μM final concentration of CJ-BODIPY derivatives. After incubation at room temperature for 45 min, fluorescence intensities were evaluated using a microplate reader.
# [1] = test system: gastrointestinal system (crop, midgut and rectum) of adult honey bees; test: Honey bee gut uptake test; design: species or system Apis mellifera; details: 100 μM, 33° C., 45 min
# Experimental: Honey bee (A. mellifera) hives were obtained and allowed to feed ab libitum spring to autumn. During the winter period, pollen mixed with 50% (v/v) sucrose was added to the honey bee hives in order to provide sufficient food. Honey bees were dissected and gastrointestinal system was removed including the crop, midgut and rectum, and added immediately to 500 μL of the delivery vehicle to be tested sample diluted with PBS at 100 μM final concentration or DMSO (0.1%) control. The mixture was incubated for 45 min at 33° C.
# The gastrointestinal system (crop, midgut and rectum) of adult honey bees was extracted, and incubated with derivatives 1, 2, 8 and 11 at 100 μM and 33° C. for 45 min.
# [2] = test system: M. tuberculosis strain H37Rv; test: Uptake test in M. tuberculosis; assay type: cell-based, Mycobacterium tuberculosis; details: 50 μg/mL (~80 μM), room temperature, 45 min
# B. bovis Texas strain = test: Short-term uptake test in B. bovis infected RBCs (confocal microscopy); details: 25 μM, 37° C., 45 min, ~5% PPE
# Experimental: The parasite culture was centrifuged and washed once with GIT medium. RBC's were pellet down, and 20 μl infected RBC mixture (10 μl packed infected RBC+10 μl GIT) was prepared. Then, 180 μl GIT medium with compound the compound to be evaluated (final concentration 25 μM for BODIPY derivatives and 100 μM for phiLOV derivatives) or DMSO (0.1%)/PBS control was added. The samples were incubated for 45 min at 37° C. (Samples were stained 1 μg/mL diluted Hoechst 33342 in GIT medium). After incubation, the samples were centrifuged and the pellet was washed with GIT medium (3×). A final solution of 50% haematocrit infected RBC mixture was transferred to slides to be observed by confocal laser microscopy (Nikon A1).
# Uptake experiments were performed by incubating the parasite (˜5% Parasitized Erythrocytes (PPE)) with each derivative at 25 μM and 37° C. for 45 min. After incubation, the fluorescence intensities were calculated from confocal microscope images.
# The phiLOV double mutant (R475G, K476C) was used to generate derivatives P11, P1, P8, and P3 which were tested for uptake in B. bovis Texas strain using phiLOV as a control. The derivatives and the control were incubated at 100 μM and 37° C. for 45 min. After incubation, the samples were analysed under confocal microscopy using Hoeschst 33342 (Thermofisher) as co-stain.
smiles,measurement,setting,value
"CC1=CC(C)=[N+]2C1=Cc1ccc(CCCn3cc(CCNC(=O)/C=C/NC(=O)[C@@H]4OC(C)(C)OCC4(C)C)nn3)n1[B-]2(F)F [Compound 1, (R,E)-N-((((3-[4,4-Difluoro-5,7-dimethyl-4-bora-3a,4a-diaza-s-indacene-3-yl]propyl)-1H-1,2,3-triazol-4-yl)ethylamino)-3-oxoprop-1-enyl)-2,2,5,5-tetramethyl-1,3-dioxane-4-carboxamide]",uptake compared to other compounds,"C. elegans; 50 μM, 3 h incubation",largest uptake observed compared to compounds 2 to 8
same,uptake: location of fluorescence in C. elegans,"C. elegans; 50 μM, 3 h incubation","observed in the pharynx, gut lumen and gut cells of both adults and larval stages"
same,uptake: location of fluorescence in C. elegans,"C. elegans; 50 μM, 20 h / overnight incubation","strong fluorescence was localised in the pharynx, gut lumen and gut cells of both adults and larvae"
same,distribution in C. elegans,"C. elegans; FIG. 2(h), fluorescence microscopy",distributed throughout the nematode
same,uptake by infected and non-infected red blood cells,P. falciparum,not taken up either by infected nor non-infected red blood cells in every culture
same,uptake in T. annulata,T. annulata,very limited uptake
same,fluorescence relative to derivative 2,L. passim strain PRA-403,approximately % of the fluorescence of derivative 2
same,"fluorescence in honey bee gut (crop, midgut, rectum)",[1],"high fluorescence in the midgut and rectum, but not the crop"
same,uptake in M. tuberculosis (fluorescence intensity / microscopy),[2],preferred over their S counterparts; also recorded: highest fluorescence signals
same,uptake in RBCs infected with B. bovis (fluorescence intensity from confocal images),B. bovis Texas strain,highest uptake
